Experimental data: PMC11912484 (Journal of Medicinal Chemistry, 2025)
≈ marks a conversion by molar mass, not a printed value. Entries after “also recorded” stand apart in the source; their conditions may differ. Like-named read-outs stand apart in the source and are kept apart here.

Assays:
MbtI [1] = molecular target: T1, MbtI (Mycobacterium tuberculosis, UniProt P9WFX1); experiment: MbtI fluorimetric enzyme inhibition assay; type: biochemical; settings: for remaining activity at 100 µM / % RA (percentage of residual enzymatic activity): 100 μM test compound, 50 μM chorismic acid; for remaining activity at 100 µM: read-out: % RA (percentage of residual enzymatic activity); for IC50: recombinant MbtI
T1 construct: made in house
T1 sequence (P9WFX1 whole entry): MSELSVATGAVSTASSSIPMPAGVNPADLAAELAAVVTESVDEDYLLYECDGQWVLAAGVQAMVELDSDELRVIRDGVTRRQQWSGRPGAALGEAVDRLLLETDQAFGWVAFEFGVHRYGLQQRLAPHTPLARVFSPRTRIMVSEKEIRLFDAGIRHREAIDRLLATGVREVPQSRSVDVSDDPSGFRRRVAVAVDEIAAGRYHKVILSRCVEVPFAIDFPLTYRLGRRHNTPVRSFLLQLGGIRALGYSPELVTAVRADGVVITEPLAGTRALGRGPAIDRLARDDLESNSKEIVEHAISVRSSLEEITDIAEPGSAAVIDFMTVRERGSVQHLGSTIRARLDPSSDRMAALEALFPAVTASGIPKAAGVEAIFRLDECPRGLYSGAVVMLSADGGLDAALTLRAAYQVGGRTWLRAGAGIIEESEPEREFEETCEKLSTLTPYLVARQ
Description: MbtI from Mtb was produced in recombinant form, and enzyme activity was determined using a fluorimetric assay, as previously reported.[38] For the inhibition studies, the activity was determined in the presence of 100 μM of the test compound and 50 μM of chorismic acid. For compounds that inhibited more than 80% of the initial activity, IC50 values were calculated using eq 1 and GraphPad Prism 8.0 software [drawing 1] 1 where A[I] is the activity at inhibitor concentration [I] and A[0] is the activity in the absence of the inhibitor.

M. bovis BCG [2] = experiment: microbe, parasite or virus in culture; type: cell-based; settings: for MIC99: Mycobacterium tuberculosis variant bovis BCG, BCG; for antimycobacterial effect (in words): M. bovis BCG, REMA
[3] = system: mycobacterial efflux pumps; type: cell-based, M. bovis BCG; settings: MIC99 with reserpine 32 μg/mL or verapamil 125 μg/mL (1/2 MIC)
siderophore production = type: cell-based; settings: M. bovis BCG grown with different concentrations of compound
M. bovis BCG [4] = type: cell-based; settings: 1 × MIC and 10 × MIC, low-iron chelated Sauton's medium
[5] = system: Mtb-infected murine alveolar-like macrophages (mAMs); type: cell-based, Mycobacterium tuberculosis
Polymersome size by DLS = type: physicochemical; settings: three independent batches
Description: The purified solutions were then analyzed by Transmission Electron Microscopy (TEM) on a Jeol JEM 1010 100 kV microscope, equipped with a Megaview 1kx1k CCD (Jeol Ltd., Tokyo, Japan). Copper grids were glow-discharged, and the sample was adsorbed onto the grid. The sample was stained with 1 wt % phosphotungstic acid (PTA) adjusted to pH 7.4 with NaOH. All the TEM analyses were performed with dried samples. The nanoparticle size distribution was characterized by DLS analyses (DLS PN3704 Zetasizer, Malvern Panalytical) using a copolymer concentration of 0.20 mg/mL. For each analysis, 3 measurements were carried out, based on 11 runs. Samples were analyzed at 25 °C with a scattering angle of 173° and a 633 nm HeNe laser, based on a material refractive index (RI) of 1.59, a dispersant refractive index of 1.330, and a viscosity of 0.89. Drug encapsulation was measured by RP-HPLC (Dionex UltiMate 3000, ThermoFisher Scientific). A gradient of water + TFA 0.05% (A) and MeOH + TFA 0.05% (B) from 0 min (30% B) to 30 min (100% B) was used to run the samples through a Jupiter 5 μm C18 300 Å, 150 × 4.6 mm column (Phenomenex, Torrance, CA). The peak area was integrated by using Chromeleon version 6.8 (ThermoFisher Scientific).

[6] = system: mouse alveolar-like macrophages (MPI-2 cell line); experiment: MTT viability assay on mAMs; type: cell-based; settings: 24 h exposure, 200, 100, 50 and 25 μM
Description: Cell viability was evaluated on human monocytes (THP-1 cell line), human lung fibroblasts (HLF cell line), and mouse alveolar-like macrophages (MPI-2 cell line) using the thiazolyl blue tetrazolium bromide method (MTT; chemicals acquired from Sigma-Aldrich, Merck KGaA).

MbtI [7] = molecular target: T1, MbtI; settings: compound II; cited from earlier work
M. bovis BCG [8] = settings: cited from earlier work
Mtb H37Rv = system: Mtb H37Rv; parameters: method as in PMID 32530281; settings: compound I; cited from earlier work
human cell lines = system: human cell lines; parameters: method as in PMID 30889995, PMID 36015139; settings: several human cell lines; cited from earlier work

Compound: CCOc1cc(C#N)cc(-c2ccc(C(=O)O)o2)c1 [Compound 1a, 5-(3-Cyano-5-ethoxyphenyl)furan-2-carboxylic Acid]
- remaining activity at 100 µM (MbtI [1]): 4.9 ± 2.3%
- IC50 (MbtI [1]): 11.8 ± 0.6 µM
- MIC99 (M. bovis BCG [2]): > 500 µM

Compound: CC(C)Oc1cc(C#N)cc(-c2ccc(C(=O)O)o2)c1 [Compound 1b, 5-(3-Cyano-5-isopropoxyphenyl)furan-2-carboxylic Acid]
- remaining activity at 100 µM (MbtI [1]): 12.1 ± 2.9%
- IC50 (MbtI [1]): 21.1 ± 0.6 µM
- MIC99 (M. bovis BCG [2]): > 500 µM

Compound: CCCOc1cc(C#N)cc(-c2ccc(C(=O)O)o2)c1 [Compound 1c, 5-(3-Cyano-5-propoxyphenyl)furan-2-carboxylic Acid]
- remaining activity at 100 µM (MbtI [1]): 2.5 ± 0.4%
- IC50 (MbtI [1]): 18.5 ± 0.9 µM
- MIC99 (M. bovis BCG [2]): 250 µM (≈ 67.8 µg/mL)

Compound: CCCCOc1cc(C#N)cc(-c2ccc(C(=O)O)o2)c1 [Compound 1d, 5-(3-Butoxy-5-cyanophenyl)furan-2-carboxylic Acid]
- remaining activity at 100 µM (MbtI [1]): < 1%
- IC50 (MbtI [1]): 0.9 ± 0.2 µM
- MIC99 (M. bovis BCG [2]): 63 µM (≈ 18 µg/mL)
- substrate of mycobacterial efflux pumps [3]: not substrates of efflux pumps

Compound: CC(C)COc1cc(C#N)cc(-c2ccc(C(=O)O)o2)c1 [Compound 1e, 5-(3-Cyano-5-isobutoxyphenyl)furan-2-carboxylic Acid]
- remaining activity at 100 µM (MbtI [1]): 7 ± 3.1%
- IC50 (MbtI [1]): 11.2 ± 1.5 µM
- MIC99 (M. bovis BCG [2]): 32 µM (≈ 9.13 µg/mL)
- siderophore production (CAS assay) (siderophore production): acted by impairing the production of siderophores
- time-killing behaviour (M. bovis BCG [4]): bacteriostatic activity
- substrate of mycobacterial efflux pumps [3]: not substrates of efflux pumps
- reduction in Mtb intracellular burden by the free compound [5]: did not exhibit significant activity on infected macrophages; also recorded: detected only at the highest tested concentration (200 μM)

Compound: N#Cc1cc(OCC2CC2)cc(-c2ccc(C(=O)O)o2)c1 [Compound 1f, 5-(3-Cyano-5-(cyclopropylmethoxy)phenyl)furan-2-carboxylic Acid]
- % RA (percentage of residual enzymatic activity) (MbtI [1]): 20.6 ± 2.4%
- remaining activity at 100 µM (MbtI [1]): 20%
- MIC99 (M. bovis BCG [2]): 125 µM (≈ 35.4 µg/mL)

Compound: N#Cc1cc(OCC2CCC2)cc(-c2ccc(C(=O)O)o2)c1 [Compound 1g, 5-(3-Cyano-5-(cyclobutylmethoxy)phenyl)furan-2-carboxylic Acid]
- % RA (percentage of residual enzymatic activity) (MbtI [1]): 30.4 ± 6.3%
- remaining activity at 100 µM (MbtI [1]): 30%
- MIC99 (M. bovis BCG [2]): 250 µM (≈ 74.3 µg/mL)

Compound: CC(C)(C)COc1cc(C#N)cc(-c2ccc(C(=O)O)o2)c1 [Compound 1h, 5-(3-Cyano-5-(neopentyloxy)phenyl)furan-2-carboxylic Acid]
- remaining activity at 100 µM (MbtI [1]): 6.8 ± 3.1%
- IC50 (MbtI [1]): 18.6 ± 1.5 µM
- MIC99 (M. bovis BCG [2]): 125 µM (≈ 37.4 µg/mL)

Compound: CCCCCOc1cc(C#N)cc(-c2ccc(C(=O)O)o2)c1 [Compound 1i, 5-(3-Cyano-5-(pentyloxy)phenyl)furan-2-carboxylic Acid]
- remaining activity at 100 µM (MbtI [1]): 0.4 ± 0.2%
- IC50 (MbtI [1]): 6.8 ± 0.1 µM
- MIC99 (M. bovis BCG [2]): 125 µM (≈ 37.4 µg/mL)

Compound: CC(C)CCOc1cc(C#N)cc(-c2ccc(C(=O)O)o2)c1 [Compound 1j, 5-(3-Cyano-5-(isopentyloxy)phenyl)furan-2-carboxylic Acid]
- remaining activity at 100 µM (MbtI [1]): 1.6 ± 1.4%
- IC50 (MbtI [1]): 22 ± 1.8 µM
- MIC99 (M. bovis BCG [2]): 125 µM (≈ 37.4 µg/mL)

Compound: CCCCCCOc1cc(C#N)cc(-c2ccc(C(=O)O)o2)c1 [Compound 1k, 5-(3-Cyano-5-(hexyloxy)phenyl)furan-2-carboxylic Acid]
- remaining activity at 100 µM (MbtI [1]): 6 ± 6.1%
- IC50 (MbtI [1]): 9.9 ± 1.3 µM
- MIC99 (M. bovis BCG [2]): 63 µM (≈ 19.7 µg/mL)
- substrate of mycobacterial efflux pumps [3]: not substrates of efflux pumps

Compound: CCCCCCCCOc1cc(C#N)cc(-c2ccc(C(=O)O)o2)c1 [Compound 1l, 5-(3-Cyano-5-(octyloxy)phenyl)furan-2-carboxylic Acid]
- % RA (percentage of residual enzymatic activity) (MbtI [1]): 40.0 ± 4.1%
- remaining activity at 100 µM (MbtI [1]): 40%

Compound: CC=CCOc1cc(C#N)cc(-c2ccc(C(=O)O)o2)c1 [Compound 1m, 5-(3-(But-2-en-1-yloxy)-5-cyanophenyl)furan-2-carboxylic Acid]
- remaining activity at 100 µM (MbtI [1]): 7.5 ± 0.3%
- IC50 (MbtI [1]): 3.1 ± 0.7 µM
- MIC99 (M. bovis BCG [2]): 125 µM (≈ 35.4 µg/mL)

Compound: C/C=C/C=C/COc1cc(C#N)cc(-c2ccc(C(=O)O)o2)c1 [Compound 1n, 5-(3-Cyano-5-((2E,4E)-hexa-2,4-dien-1-yloxy)phenyl)furan-2-carboxylic Acid]
- remaining activity at 100 µM (MbtI [1]): 10 ± 3.6%
- IC50 (MbtI [1]): 16.6 ± 2.1 µM
- antimycobacterial effect (in words) (M. bovis BCG [2]): completely abolished the antimycobacterial effect
- MIC99 (M. bovis BCG [2]): > 500 µM

Compound: C/C=C/C=C/C=C/COc1cc(C#N)cc(-c2ccc(C(=O)O)o2)c1 [Compound 1o, 5-(3-Cyano-5-((2E,4E,6E)-octa-2,4,6-trien-1-yloxy)phenyl)furan-2-carboxylic Acid]
- remaining activity at 100 µM (MbtI [1]): 18.4 ± 3.8%
- IC50 (MbtI [1]): 9.2 ± 2.4 µM
- antimycobacterial effect (in words) (M. bovis BCG [2]): completely abolished the antimycobacterial effect
- MIC99 (M. bovis BCG [2]): > 500 µM

Compound: CCOC(=O)c1ccc(-c2cc(C#N)cc(OCC(C)C)c2)o1 [Compound 2ea, Ethyl 5-(3-Cyano-5-isobutoxyphenyl)furan-2-carboxylate]
- remaining activity at 100 µM (MbtI [1]): 71.5 ± 7.6%
- MIC99 (M. bovis BCG [2]): 64 µM (≈ 20.1 µg/mL)
- average size (hydrodynamic diameter) of drug-containing POs (Polymersome size by DLS): 44.46 ± 9.58 nm
- mAM viability / cytotoxic effect [6]: increase in mAM mortality at the two highest tested concentrations (200 and 100 μM)

Compound: CCCOC(=O)c1ccc(-c2cc(C#N)cc(OCC(C)C)c2)o1 [Compound 2eb, Propyl 5-(3-Cyano-5-isobutoxyphenyl)furan-2-carboxylate]
- remaining activity at 100 µM (MbtI [1]): 94 ± 9.3%
- MIC99 (M. bovis BCG [2]): 125 µM (≈ 40.9 µg/mL)
- average size (hydrodynamic diameter) of drug-containing POs (Polymersome size by DLS): 45.68 ± 1.86 nm
- mAM viability / cytotoxic effect [6]: increase in mAM mortality at the two highest tested concentrations (200 and 100 μM)

Compound: N#Cc1cc(OCCOc2ccccc2)cc(-c2ccc(C(=O)O)o2)c1 [II]
- IC50 (MbtI [7]): 12.1 µM
- MIC99 (M. bovis BCG [8]; compound II): 63 µM (≈ 22 µg/mL)

Compound: N#Cc1cccc(-c2ccc(C(=O)O)o2)c1 [I]
- MIC99 (M. bovis BCG [8]; compound I, M. bovis BCG): 250 µM (≈ 53.3 µg/mL)
- MIC99 (Mtb H37Rv): 250 µM (≈ 53.3 µg/mL)
- safety on human cell lines (human cell lines): safe on several human cell lines

Compound: CO[C@H]1/C=C/O[C@@]2(C)Oc3c(C)c(O)c4c(O)c(c(/C=N/N5CCN(C)CC5)c(O)c4c3C2=O)NC(=O)/C(C)=C\C=C\[C@H](C)[C@H](O)[C@@H](C)[C@@H](O)[C@@H](C)[C@H](OC(C)=O)[C@@H]1C [Rifampicin, reference compound]
- time of peak effect on Mtb fluorescence ([5]; 1 μg/mL (2x MIC), positive control): 3 day post-treatment
